Measured values reported in patent EP1206248B1, “CONTROLLED-RELEASE SEDATIVE-HYPNOTIC COMPOSITIONS AND METHODS RELATED THERETO” (Neurocrine Biosciences, Inc., priority 1999, dated 2001).
In brackets after ≈: the same amount, converted by molar mass.

Legend:
[1] = Plasma half-life and pharmacokinetic parameters from plasma concentration-time profiles; format: in vivo; conditions: human
From the text: The mean plasma half-life of a sedative-hypnotic compound may be determined using well known techniques. Terminal half-life may be determined using standard pharmacokinetic calculations, such as those presented by Rolland and Tozer (Clinical Pharmacokinetics Concepts and Applications, 3rd. Ed., Chap. 3, 1995). In addition, software is commercially available which performs this calculation, such as the product sold under the tradename "WinNinlin™" (Prof. Ver.1.5). […]
To assess the plasma concentration time profiles, plasma concentration, Tmax and Tmin may be determined using well known techniques. […] Any suitable assay may be used to determine plasma levels, such as ELISA, RIA, or chromatography (e.g., gas-liquid chromatography or high pressure liquid chromatography) linked to any suitable detection system such as UV, fluorescence, mass spectrometry or an electrochemical system). […]
In this experiment, commercially available plasma profiling sofltware (GastroPlus™) (Simulations Plus Inc., CA) was used to simulate the effects of varying controlled release profiles and pharmacokinetic parameters based on in vivo plasma concentrations of NBI-34060 as measured in 12-healty male human subjects. […]

[2] = log D partition coefficient

Compound: CC(=O)N(C)c1cccc(-c2ccnc3c(C(=O)c4cccs4)cnn23)c1 [NBI-34060, N-methyl-N-(3-{3-[2-thienylcarbonyl]-pyrazolo-[1,5-a]-pyrimidin-7-yl}-phenyl)acetamide]
- resulting pH (Solubility in water; pH of the aqueous solution at approximately 20-30 µg/ml): approximately 8.0
- solubility (Solubility in water; water, pH 8, water): 20 to 30 µg/mL (≈ 53.1 to 79.7 µM)
- half-life ([1]; plasma half-life of NBI-34060): 1.3 h
- Vd ([1]; male, one-compartment pharmacokinetic model, assuming 70 kg subject weight, read-out: volume of distribution (Vd)): 2.27 L/kg
- logD [2]: 1.73
